Consider one molecule from patent US7820148B2, “Use of a complex nutritional base in cosmetics, in particular for the hair” (priority 2004, dated 2010).

Where “and” joins values, the source holds several entries; their conditions need not be identical. Equal entries are not always repeated.

The test system of the assay is scalp fragments. The experiment in a line: Example 4: cell proliferation (anti-Ki67 immunohistochemistry) in root and outer epithelial sheath of scalp fragments kept in survival. Type of assay: cell-based, human. The conditions noted are these: N = 6, 48 hours. As for the experimental part: The aim of the present study is to identify the effectiveness of a CNB according to the invention and according to Table 2, on the stimulation of the root. The cell proliferation, using the anti-Ki67 antibody, was evaluated in the matrix zone of the root (growth zone of the stem), but also in the outer epithelial sheath of the follicle.
Scalp fragments from 6 different donors (cervico-facial lift of a non-alopecia subject) were deposited in inserts, themselves positioned on culture wells.
Containing no preservative, antibiotics were added to all these tested media (fungizone, gentamycin). They were added daily to the bottom of the wells, a passage taking place by slow diffusion between the two compartments via a porous membrane (12 μm).
The scalp fragments were kept in survival in a stove at 37° C. and in an air/5% CO2 atmosphere for 48 hours.
The scalp fragments were fixed in Bouin's liquid and set in paraffin.
The immunohistochemical evaluation of proliferation was carried out in the root and in the outer epithelial sheath surrounding the hair. This outer sheath is histologically considered as the prolongation of the surface epidermis.
Epithelial proliferation was analyzed by immunohistochemistry using an anti-Ki67 antibody (for labelling cells M, S, G1 and G2 of the cell cycle). Immunodetection was carried out using an indirect immunoperoxidase technique in 3 layers, amplified by (DAKO kit) and developed in AEC.
The number of labelled cells of the outer epithelial sheath was counted between the origin of the sebaceous glands and the beginning of the root zone. Furthermore, the labelled matrix cells in the roots were also counted. The percentage of cells undergoing proliferation was thereby calculated compared to the unlabelled cells.
Statistical analysis was carried out by the Student's test of the reduced deviation or paired samples test. The significant threshold was set at 5%.

For the molecule `Nc1cc(N2CCCCC2)nc(N)[n+]1[O-]` [Minoxidil], the “% of labelled cells (anti-Ki67) in the outer epithelial sheath of the follicles” value was 10.2% and 10.2 ± 5% (Minoxidil 0.01% in PBS); 17.6% and 17.6 ± 7 % (Minoxidil 2% in PBS). Moreover, the “% of labelled matrix cells (anti-Ki67) in the root of the hair follicle” value (Minoxidil 0.01% in PBS) was 4.2% and 4.2 ± 2.45%; the “% of labelled matrix cells (anti-Ki67) in the root of the hair follicle” value (Minoxidil 2% in PBS) is 11.60% and 11.6 ± 8.7%.
